Experiments:
[1] = test system: HRE/Luc/HEK293 cells; assay: HRE (Hypoxia Response Element) luciferase assay; type: cell-based, human
How it was run: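 HRE-luciferase HEK293 cells in MEM/10% FBS pretreated with compound 6 h, then held under hypoxia (0.1% O2) 18 h; luminescence read after lysis. Scored as fold increase over vehicle, with twofold threshold at 100, 10 or 1 µM.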

[2] = test system: male ICR mice; assay: Scopolamine-induced cognitive impairment model: passive avoidance test (PAT); type: in vivo
Description: (§1) A memory loss rodent animal model induced by scopolamine intraperitoneal administration is used, and an evaluation method for memory uses a Y-maze test and a passive avoidance test (PAT). Scopolamine is a representative experimental model showing an impairment of cognitive function similar to AD patients by blocking neurotransmitters when administered to an animal as an antagonist of a muscarinic acetylcholine receptor, and as a cognitive function evaluation technique, a Y-maze test and a passive avoidance experiment, which are general and representative methods, were used, and in order to objectify the efficacy levels of the compounds, a group administered with donepezil (Aricept, Eisa) as a positive control material was separately provided to compare the efficacy levels of the compounds.
(§2) In order to evaluate cognitive function, 5-week-old male ICR mice were used, the compounds to be evaluated were prepared at a dose of 50 mg/kg/ml and repeatedly orally administered at a predetermined time for 7 days, and the positive control material was carried out at 5 mg/kg/ml. After the last administration, after 30 minutes of intraperitoneal administration of 1 mg/kg/2 ml of scopolamine, a Y-maze test and a passive avoidance test, which are cognitive function evaluations, were performed.
In addition, the passive avoidance test was conducted using an avoidance learning box (Jeondo B&P, Korea, Seoul), and the avoidance learning box is divided into a dark room and a bright room, and when a laboratory animal is put into a bright room, the subject goes beyond the dark room. At the moment, an electric shock of 0.5 mA is applied for 5 seconds, and when the next day experimental animal is put back into a bright room, an electric shock in a dark room is memorized and stay in a bright room. In this case, a step-through latency is measured to evaluate memory. The efficacy of the compounds of the present invention against the normal group and the control group in the Y-maze test and the passive avoidance test was described in the following Table 3 (Scopolamine-induced cognitive impairment model result).

[3] = test system: male ICR mice; assay: Scopolamine-induced cognitive impairment model: Y-maze test; type: in vivo
Description: as §1, §2
The Y-maze test is a method for evaluating the ability to sequentially act as an experiment for measuring short-term memory. The measurement equipment is composed of three branches, each branch has a length of 42 cm, a width of 3 cm, and a height of 12 cm, and an angle at which three branches are folded is 120°. Experimental animals are put into each branch for 8 minutes, and the number of times of entering the branches to the tail of the experimental animal and the case of being sequentially received in each branch are scored (actual alternation). The alternation behavior is defined as entering not to overlap all three, and is calculated by the following equation. [formula]

For CC(C)c1ccc(Oc2ccc(O[C@H]3OC[C@H](O)[C@H](O)[C@H]3O)cc2)cc1 [Example 35, (2R,3R,4S,5S)-2-(4-(4-isopropylphenoxy)phenoxy)tetrahydro-2H-pyran-3,4,5-triol], the fold induction at 10 µM ([1]; Homo sapiens, HEK293, 10uM, fold increase of HRE expression, hypoxic conditions (O2 0.1%) 18 hours, Table 2, read-out: HRE-increasing 10uM) was 3.7, the fold induction at 100 µM ([1]; Homo sapiens, HEK293, 100uM, fold increase of HRE expression, hypoxic conditions (O2 0.1%) 18 hours, Table 2, read-out: HRE-increasing 100uM) was < 1 and the HRE expression ([1]; concentration of 10 µM) was “more than threefold”. The percent recovery of memory in passive avoidance test (normal group = 100, scopolamine control = 0) at 50 mg/kg ([2]; Mus musculus, po, 168 h, read-out: in vivo(effect) PAT (%)) was 45%, the “in vivo PAT” value ([2]; time staying in bright room (step-through latency), scopolamine 1 mg/kg i.p., compounds 50 mg/kg oral for 7 days, donepezil 5 mg/kg (avg.)) was 141 s and the percent recovery of cognitive function (Y-maze) at 50 mg/kg ([3]; Mus musculus, po, 168 h, read-out: in vivo(effect) Y-maze (%)) was 41%. The “in vivo Y-maze (%)” value ([3]; spontaneous alternation, scopolamine 1 mg/kg i.p., compounds 50 mg/kg oral for 7 days, donepezil 5 mg/kg (avg.)) was 59%.

Source: patent EP4810508A1, “ARABINOSE DERIVATIVE COMPOUND, AND COMPOSITION COMPRISING SAME FOR PREVENTING OR TREATING DEGENERATIVE BRAIN DISEASES” (Digmbio. Inc., priority 2023, dated 2025)
